From patent publication US10906938B2, “Cell epitopes and combination of cell epitopes for use in the immunotherapy of myeloma and other cancers” (Immatics Biotechnologies GmbH, priority 2015, dated 2021)

Experiments:
MM.1S cells = test: HLA class I ligand presentation upon carfilzomib treatment on MM.1S cells (LC-MS/MS); assay type: cell-based, human; design: key to modulation upon carfilzomib-treatment 24 #1 / modulation upon carfilzomib-treatment 24 #2 / modulation upon carfilzomib-treatment 24 #3 / modulation upon carfilzomib-treatment 48 #1 / modulation upon carfilzomib-treatment 48 #2 / modulation upon carfilzomib-treatment 48 #3: −1: significantly down-modulated; 0: not signifcant/not detected; 1: significantly up-modulated; conditions: MM.1S cells; for modulation upon carfilzomib-treatment 24 #1 / modulation upon carfilzomib-treatment 24 #2 / modulation upon carfilzomib-treatment 24 #3: 24 h after carfilzomib treatment (100 nM, 1 h); for modulation upon carfilzomib-treatment 24 #1 / modulation upon carfilzomib-treatment 48 #1: biological replicate #1; for modulation upon carfilzomib-treatment 24 #1 / modulation upon carfilzomib-treatment 24 #2 / modulation upon carfilzomib-treatment 24 #3 / modulation upon carfilzomib-treatment 48 #1 / modulation upon carfilzomib-treatment 48 #2 / modulation upon carfilzomib-treatment 48 #3: vs mock-treated controls; for modulation upon carfilzomib-treatment 24 #2 / modulation upon carfilzomib-treatment 48 #2: biological replicate #2; for modulation upon carfilzomib-treatment 24 #3 / modulation upon carfilzomib-treatment 48 #3: biological replicate #3; for modulation upon carfilzomib-treatment 48 #1 / modulation upon carfilzomib-treatment 48 #2 / modulation upon carfilzomib-treatment 48 #3: 48 h after carfilzomib treatment (100 nM, 1 h); for modulation of peptide presentation upon carfilzomib treatment: 24 h after carfilzomib treatment
Protocol: (§1) HLA class I and II molecules were isolated using standard immunoaffinity purification as described using the pan-HLA class I specific mAb W6/32, the pan-HLA class II specific mAb T039 and the HLA-DR specific mAB L243 (produced in house).
(§2) HLA ligand extracts were analyzed in 5 technical replicates as described previously. In brief, peptide samples were separated by nanoflow HPLC (RSLCnano, ThermoFisher) using a 50 μm×25 cm PepMap RSLC column (Thermo Fisher) and a gradient ranging from 2.4 to 32.0% acetonitrile over the course of 90 min. Eluting peptides were analyzed in an online coupled LTQ Orbitrap XL mass spectrometer (Thermo Fisher) using a top 5 CID (collision induced dissociation) fragmentation method.
(§3) Data processing was performed as described previously. In brief, the Mascot search engine (Mascot 2.2.04; Matrix Science, London, UK) was implemented to search the human proteome as comprised in the Swiss-Prot database (20,279 reviewed protein sequences, September 2013) without enzymatic restriction. Potential mutated HLA ligands were searched implementing a database containing the human proteome concatenated with proteins containing single amino acid variants (SAVs) listed in the COSMIC database (http://cancer.sanger.ac.uk/cosmic/). Only recurrent SAVs described in 2 or more samples of hematological origin were included. Oxidized methionine was allowed as a dynamic modification. The false discovery rate was estimated using the Percolator algorithm and set to 5%. Peptide lengths were limited to 8-12 amino acids for HLA class I and 12-25 amino acids for HLA class II. Protein inference was disabled, allowing for multiple protein annotations of peptides. HLA annotation was performed using SYFPEITHI [46] or an extended in-house database. Experimental validation of peptide identifications and HLA annotations was performed by mass spectrometric and functional characterization of synthetic peptides for a subset of peptides.
(§4) The inventors quantitatively assessed HLA class I ligand presentation during proteasome inhibitor therapy. Observed was a considerable plasticity of the HLA class I ligandome after treatment with carfilzomib with 17.9±1.1% of MM.1S ligands and 11.2±0.7% of U266 ligands (mean of three biological replicates ±s.d.) showing significant modulation (fold-change ≥4, Po0.01 after Benjamini-Hochberg correction) at t24 h compared with mock-treated controls. Briefly, Cultured MCLs (MM.1S and U266) and primary myeloma samples were incubated with carfilzomib (100 nM, Kyprolis®, available, e.g., from Onyx Pharmaceuticals, Inc.) as an example for a proteasome inhibitor for a 1-h period, followed by three washes in PBS (Gibco) and recultured for additional 24 or 48 h. Controls were incubated with vehicle control (glucose 5%) for 1 h, followed by identical washing and incubation for 24 or 48 h. Experiments were conducted in three biological replicates where indicated.

U266 cells = test: HLA class I ligand presentation upon carfilzomib treatment on U266 cells (LC-MS/MS); assay type: cell-based, human; design: key to modulation upon carfilzomib-treatment 24 #1 / modulation upon carfilzomib-treatment 24 #2 / modulation upon carfilzomib-treatment 24 #3 / modulation upon carfilzomib-treatment 48 #1 / modulation upon carfilzomib-treatment 48 #2 / modulation upon carfilzomib-treatment 48 #3: −1: significantly down-modulated; 0: not signifcant/not detected; 1: significantly up-modulated; conditions: U266 cells, vs mock-treated controls
Protocol: as §1, §2, §3, §4

Sequence | modulation upon carfilzomib-treatment 24 #1 (MM.1S cells) | modulation upon carfilzomib-treatment 24 #2 (MM.1S cells) | modulation upon carfilzomib-treatment 24 #3 (MM.1S cells) | modulation upon carfilzomib-treatment 48 #1 (MM.1S cells) | modulation upon carfilzomib-treatment 48 #2 (MM.1S cells) | modulation upon carfilzomib-treatment 48 #3 (MM.1S cells) | modulation of peptide presentation upon carfilzomib treatment (MM.1S cells) | modulation upon carfilzomib-treatment 24 #1 (U266 cells; 24 h after carfilzomib treatment (100 nM, 1 h), biological replicate #1) | modulation upon carfilzomib-treatment 24 #2 (U266 cells; 24 h after carfilzomib treatment (100 nM, 1 h), biological replicate #2) | modulation upon carfilzomib-treatment 24 #3 (U266 cells; 24 h after carfilzomib treatment (100 nM, 1 h), biological replicate #3) | modulation upon carfilzomib-treatment 48 #1 (U266 cells; 48 h after carfilzomib treatment (100 nM, 1 h), biological replicate #1) | modulation upon carfilzomib-treatment 48 #2 (U266 cells; 48 h after carfilzomib treatment (100 nM, 1 h), biological replicate #2) | modulation upon carfilzomib-treatment 48 #3 (U266 cells; 48 h after carfilzomib treatment (100 nM, 1 h), biological replicate #3)
NEFPVFDEF | 0 | 0 | 0 | 0 | 0 | 0 |  |  |  |  |  |  | 
LAFPGEMLL (listed as Homo sapiens) [SEQ ID NO: 107] |  |  |  |  |  |  | no significant modulation |  |  |  |  |  | 
YYLNEIQSF [SEQ ID NO: 228] |  |  |  |  |  |  | no significant modulation |  |  |  |  |  | 
TPAVGRLEV | 0 | 0 | 0 | 0 | 0 | 0 |  | 0 | 0 | 0 | 0 | 0 | 0
RYLDLFTSF | −1 | −1 | −1 | 0 | −1 | −1 |  |  |  |  |  |  | 
IEHPSMSVY | 1 | 1 | 1 | 0 | 1 | 1 |  |  |  |  |  |  | 
VPLPPKGRVL | 0 | 0 | 0 | 0 | 0 | 0 |  |  |  |  |  |  | 
EYGHIPSF | 1 | 1 | 0 | 0 | 0 | 0 |  |  |  |  |  |  | 
SPALPGLKL | 0 | 0 | 0 | 0 | 0 | 0 |  |  |  |  |  |  | 
RPHGGKSL | 0 | 0 | 0 | 0 | 0 | 0 |  |  |  |  |  |  | 
